Data published in patent US11059778B2, “Cannabinoid receptor CB2 ligand 4-(aminomethyl)-N, N-dialkylanilines” (UNIVERSITY OF PITTSBURGH—OF THE COMMONWEALTH SYSTEM OF …, priority 2015, dated 2021).
pKi: −log10 of the molar value.

Key:
[1] = biological target: T1, human CB2 receptors (Homo sapiens, UniProt P34972); assay: [3H]CP-55,940 radioligand competition binding assay, CB2; conditions: for pKi: CHO cell membranes, [3H]CP-55,940 displacement
T1 construct: expressed in transfected cells
Procedure: (§1) Binding assay. The bioassay is carried out using the Perkin Elmer 96-well Top Counter. This bioassay is also known as a competition binding assay and the biological evaluation is to determine the CB receptor binding affinity (Ki) of the screened ligands by displacing [^3H]-CP-55940 (or other radioligands). The brief procedure is given below.
(§2) Perkin Elmer 96-well TopCounter is used at PMLSC and in our laboratory to determine the CB receptor binding affinity (Ki) of the in-silico screened ligands by displacing [^3H]-CP-55,940 (or other radioligands). In competition binding experiments, the tested compound dilutions are carried out in triplicate in TME buffer (25 mM Tris, 5 mM MgCl2, 1 mM EDTA) containing 0.1% (w/v) fatty acid free bovine serum albumin (BSA), pH 7.4. Various concentrations of the tested compound are added in the same volume to 0.5 nM [^3H]CP-55,940. TME buffer and cell membrane preparations expressing CB receptors (2.5 μg per well) are added to a final volume of 200 μL. For the saturation binding experiments, varying concentrations of [^3H]CP-55,940 (0.05-1.5 nM) with or without 2 μM of unlabeled ligands (CP-55,940 or WIN-55,212-2) are incubated with the receptor membrane preparations to determine Kd and nonspecific binding. After the binding suspensions are incubated at 30° C. for 1 hr, the reaction is terminated by rapid filtration through microfiltration plates coated with 0.5% polyethylenimine (Unifilter GF/B filterplate, PerkinElmer) followed by 5 washes with ice cold TME buffer containing 0.5% BSA on a Packard Filtermate Harvester (PerkinElmer). The plates are then dried overnight and 30 μl MicroScint 0 scintillation cocktail are added to each well of the dried filter plates. Then the bound radioactivity is counted using a Perkin Elmer 96-well TopCounter. The Ki is calculated by using nonlinear regression analysis (Prism 5; GraphPad Software Inc., San Diego, Calif.), with the Kd values for [^3H]CP-55,940 determined from saturation binding experiments. This assay is used for determining binding affinity parameters (Ki) of ligand-receptor interactions for the CB receptor.
(§3) The affinities of the synthesized ligands were determined in radioligand binding studies at human CB1 and CB2 receptors using [3H](—)-cis-3-[2-hydroxy-4-(1,1 dimethylheptyl)phenyl]-trans-4-(3-hydroxypropyl) cyclohexanol (CP55,940) as a CB receptor radioligand. As a source for human CB1 and CB2 receptors, membrane preparations of Chinese hamster ovary (CHO) cells stably expressing the respective receptor subtype were utilized (50 μg of protein/vial). CB2 selective ligand SR144528 (CB2 inverse agonist) and CB1 ligand SR141716 (CB1 inverse agonist) were used as positive controls, respectively, along with the tested compounds in bioassays experiments. Only compounds with high CB2 receptor binding potency was chosen to carry out the CB1 binding assay. CB ligand competition binding assay was carried out as described previously in Gertsch, J., et al., Beta-caryophyllene is a dietary cannabinoid. Proc Natl Acad Sci USA 2008, 105 (26), 9099-104. Briefly, non-radioactive (or cold) ligands (synthesized derivatives and reference ligands) were diluted in a binding buffer (50 mM Tris-HCl (pH 7.4), 5 mM MgC12, 2.5 mM EGTA, and 0.1% (w/v) fatty acid free BSA), supplemented with 10% dimethyl sulfoxide and 0.4% methyl cellulose. Each assay plate well contained a total of 200 μL of reaction mixture composed of 5 μg of CB1 (or 2.5 μg CB2) membrane protein, labeled [3H]-CP-55,940 ligand at a final concentration of 2.5 nM, and the unlabeled ligand at its varying dilutions as stated above. Plates were incubated at 30° C. for 1 hour with gentle shaking.
(§4) The reaction was terminated by rapid filtration through Unifilter GF/B filter plates using a Unifilter Cell Harvester (PerkinElmer). After the plate was allowed to dry overnight, 30 μL MicroScint-0 cocktail (PerkinElmer) was added to each well, and the radioactivity was counted using a PerkinElmer TopCounter. […]

[2] = biological target: T2, human CB1 receptors (Homo sapiens, UniProt P21554); assay: [3H]CP-55,940 radioligand competition binding assay, CB1; conditions: CHO cell membranes, [3H]CP-55,940 displacement
T2 construct: expressed in transfected cells
T2 sequence (P21554 whole entry): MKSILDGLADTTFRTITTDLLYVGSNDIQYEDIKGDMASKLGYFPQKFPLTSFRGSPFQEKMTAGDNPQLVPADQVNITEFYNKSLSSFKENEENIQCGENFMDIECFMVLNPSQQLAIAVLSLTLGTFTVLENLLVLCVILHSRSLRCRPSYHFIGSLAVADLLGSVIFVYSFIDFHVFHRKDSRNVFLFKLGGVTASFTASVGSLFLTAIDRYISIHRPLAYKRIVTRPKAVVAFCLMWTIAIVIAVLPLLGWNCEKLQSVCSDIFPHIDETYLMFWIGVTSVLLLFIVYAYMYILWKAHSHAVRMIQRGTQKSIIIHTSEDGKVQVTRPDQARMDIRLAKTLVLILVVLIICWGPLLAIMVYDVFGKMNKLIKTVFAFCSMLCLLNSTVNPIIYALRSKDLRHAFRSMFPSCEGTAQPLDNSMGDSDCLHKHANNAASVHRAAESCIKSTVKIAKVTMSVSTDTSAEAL
Procedure: as §1, §2, §3, §4

T1 sequence (P34972 whole entry): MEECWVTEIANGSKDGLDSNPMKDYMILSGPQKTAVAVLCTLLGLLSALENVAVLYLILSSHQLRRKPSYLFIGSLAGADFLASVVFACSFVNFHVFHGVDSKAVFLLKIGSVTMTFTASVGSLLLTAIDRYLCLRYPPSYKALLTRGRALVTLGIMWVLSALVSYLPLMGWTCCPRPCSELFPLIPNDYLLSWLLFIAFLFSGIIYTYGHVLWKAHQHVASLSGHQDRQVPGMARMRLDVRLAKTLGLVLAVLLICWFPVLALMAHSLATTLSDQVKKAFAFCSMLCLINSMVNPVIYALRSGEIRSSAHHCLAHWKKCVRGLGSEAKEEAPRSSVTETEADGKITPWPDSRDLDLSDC

Compound | SI: selectivity index for CB2, calculated as Ki(CB1)/Ki(CB2) ratio [1] | pKi [1] | pKi [2] | Ki (CB1) [2]
4-(((benzo[d][1,3]dioxol-5-ylmethyl)(quinoxalin-2-ylmethyl)amino)methyl)-N,N-diethylaniline [Compound 31] | 2 | 6.11 | 5.90 | –
CCN(CC)c1ccc(CNCc2cc(OC)c(OC)c(OC)c2)cc1 [Compound 3, N,N-diethyl-4-(((3,4,5-trimethoxybenzyl)amino)methyl)aniline] | – | 4.37 | – | –
CCN(CC)c1ccc(CN(Cc2cc(OC)c(OC)c(OC)c2)S(=O)(=O)c2cccc(C)c2)cc1 [Compound 5, N-(4-(diethylamino)benzyl)-3-methyl-N-(3,4,5-trimethoxybenzyl)benzenesulfonamide] | 3 | 6.54 | 6.14 | –
CCN(CC)c1ccc(CN(Cc2cc(OC)c(OC)c(OC)c2)S(=O)(=O)c2ccc(-c3ccccc3)cc2)cc1 [Compound 10, N-(4-(diethylamino)benzyl)-N-(3,4,5-trimethoxybenzyl)-[1,1′-biphenyl]-4-sulfonamide] | 62 | 6.49 | < 4.70 | –
CCN(CC)c1ccc(CN(Cc2cc(OC)c(OC)c(OC)c2)C(=O)c2cnc3ccccc3n2)cc1 [Compound 12, N-(4-(diethylamino)benzyl)-N-(3,4,5-trimethoxybenzyl)quinoxaline-2-carboxamide] | 52 | 6.60 | 4.89 | –
CCN(CC)c1ccc(CN(Cc2cc(OC)c(OC)c(OC)c2)S(=O)(=O)c2ccccc2C)cc1 [Compound 14, N-(4-(diethylamino)benzyl)-2-methyl-N-(3,4,5-trimethoxybenzyl)benzenesulfonamide] | 2 | 6.80 | 6.74 | –
CCN(CC)c1ccc(CN(Cc2cc(OC)c(OC)c(OC)c2)S(=O)(=O)c2cccs2)cc1 [Compound 16, N-(4-(diethylamino)benzyl)-N-(3,4,5-trimethoxybenzyl)thiophene-2-sulfonamide] | 32 | 6.19 | < 4.70 | –
CCN(CC)c1ccc(CN(Cc2cc(OC)c(OC)c(OC)c2)S(=O)(=O)c2ccc(OC)c(OC)c2)cc1 [Compound 17, N-(4-(diethylamino)benzyl)-3,4-dimethoxy-N-(3,4,5-trimethoxybenzyl)benzenesulfonamide] | – | 6.18 | – | –
CCN(CC)c1ccc(CN(Cc2cccnc2)C(=O)c2cccs2)cc1 [Compound 21, N-(4-(diethylamino)benzyl)-N-(pyridin-3-ylmethyl)thiophene-2-carboxamide] | – | 5.99 | – | –
CCN(CC)c1ccc(CN(Cc2cccnc2)C(=O)c2cnc3ccccc3n2)cc1 [Compound 22, N-(4-(diethylamino)benzyl)-N-(pyridin-3-ylmethyl)quinoxaline-2-carboxamide] | – | 5.92 | – | –
CCN(CC)c1ccc(CN(Cc2cccnc2)S(=O)(=O)/C=C/c2ccccc2)cc1 [Compound 23, (E)-N-(4-(diethylamino)benzyl)-2-phenyl-N-(pyridin-3-ylmethyl)ethene-1-sulfonamide] | 6 | 6.05 | 5.26 | –
CCN(CC)c1ccc(CN(Cc2cccnc2)S(=O)(=O)c2ccc(-c3ccccc3)cc2)cc1 [Compound 25, N-(4-(diethylamino)benzyl)-N-(pyridin-3-ylmethyl)-[1,1′-biphenyl]-4-sulfonamide] | 21 | 6.02 | < 4.70 | –
CCN(CC)c1ccc(CN(Cc2ccc3c(c2)OCO3)S(=O)(=O)c2ccc3ccccc3c2)cc1 [Compound 33, N-(benzo[d][1,3]dioxol-5-ylmethyl)-N-(4-(diethylamino)benzyl)naphthalene-2-sulfonamide] | – | 6.05 | – | –
CCCCCNCc1ccc(N(CC)CC)cc1 [Compound 36, N,N-diethyl-4-((pentylamino)methyl)aniline] | – | 4.40 | – | –
CCCCCN(Cc1ccc(N(CC)CC)cc1)S(=O)(=O)c1ccc(-c2ccccc2)cc1 [Compound 42, N-(4-(diethylamino)benzyl)-N-pentyl-[1,1′-biphenyl]-4-sulfonamide] | – | 5.50 | – | –

The next lines start with the values.

SI: selectivity index for CB2, calculated as Ki(CB1)/Ki(CB2) ratio [1] | pKi [1] | pKi [2] | Ki (CB1) [2] | Compound
50 | 6.39 | < 4.70 | no CB1 binding affinity | CCN(CC)c1ccc(CN(Cc2cc(OC)c(OC)c(OC)c2)S(=O)(=O)c2ccc(OC)cc2)cc1 [Compound 4, N-(4-(diethylamino)benzyl)-4-methoxy-N-(3,4,5-trimethoxybenzyl)benzenesulfonamide]
2 | 6.41 | 6.11 | – | CCN(CC)c1ccc(CN(Cc2cc(OC)c(OC)c(OC)c2)S(=O)(=O)c2ccc(C)cc2)cc1 [Compound 6, N-(4-(diethylamino)benzyl)-4-methyl-N-(3,4,5-trimethoxybenzyl)benzenesulfonamide]
44 | 6.34 | < 4.70 | no affinity | CCN(CC)c1ccc(CN(Cc2cc(OC)c(OC)c(OC)c2)S(=O)(=O)c2ccccc2)cc1 [Compound 7, N-(4-(diethylamino)benzyl)-N-(3,4,5-trimethoxybenzyl)benzenesulfonamide]
– | 6.64 | 6.91 | – | CCN(CC)c1ccc(CN(Cc2cc(OC)c(OC)c(OC)c2)S(=O)(=O)c2ccc(C(C)C)cc2)cc1 [Compound 8, N-(4-(diethylamino)benzyl)-4-isopropyl-N-(3,4,5-trimethoxybenzyl)benzenesulfonamide]
– | 6.62 | 7.15 | – | CCN(CC)c1ccc(CN(Cc2cc(OC)c(OC)c(OC)c2)S(=O)(=O)c2ccc3ccccc3c2)cc1 [Compound 9, N-(4-(diethylamino)benzyl)-N-(3,4,5-trimethoxybenzyl)naphthalene-2-sulfonamide]
2 | 6.00 | 5.91 | – | CCN(CC)c1ccc(CN(Cc2cc(OC)c(OC)c(OC)c2)S(=O)(=O)c2ccc(OC(F)(F)F)cc2)cc1 [Compound 13, N-(4-(diethylamino)benzyl)-4-(trifluoromethoxy)-N-(3,4,5-trimethoxybenzyl)benzenesulfonamide]
– | < 4.70 | – | – | CCN(CC)c1ccc(CNCc2cccnc2)cc1 [Compound 20, N,N-diethyl-4-(((pyridin-3-ylmethyl)amino)methyl)aniline]
14 | 6.06 | 4.92 | – | CCN(CC)c1ccc(CN(Cc2cccnc2)S(=O)(=O)c2ccc3ccccc3c2)cc1 [Compound 24, N-(4-(diethylamino)benzyl)-N-(pyridin-3-ylmethyl)naphthalene-2-sulfonamide]
– | < 4.70 | – | – | CCN(CC)c1ccc(CNCc2ccc3c(c2)OCO3)cc1 [Compound 28, 4-(((benzo[d][1,3]dioxol-5-ylmethyl)amino)methyl)-N,N-diethylaniline]
– | 5.70 | – | – | CCN(CC)c1ccc(CN(Cc2ccc3c(c2)OCO3)S(=O)(=O)c2ccc(-c3ccccc3)cc2)cc1 [Compound 34, N-(benzo[d][1,3]dioxol-5-ylmethyl)-N-(4-(diethylamino)benzyl)-[1,1′-biphenyl]-4-sulfonamide]
